Experimental data taken from PubChem BioAssay (NCI).
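Values below derive from 48-hour exposures of cells grown in 96-well plates, with endpoints linearly interpolated between the two concentrations bracketing the appropriate inhibition level. At the TGI there is no net growth.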

Key:
Experiment in all cases: NCI anticancer screen, dose series, 48 h
HCT-15 colon = system: HCT-15 colon
ACHN renal = system: ACHN renal
MALME-3M melanoma = system: MALME-3M melanoma
MCF7 breast = system: MCF7 breast
NCI-H522 lung = system: NCI-H522 lung
CCRF-CEM leukemia = system: CCRF-CEM leukemia
LOX IMVI melanoma = system: LOX IMVI melanoma
HS 578T breast = system: HS 578T breast
OVCAR-5 ovarian = system: OVCAR-5 ovarian
M14 melanoma = system: M14 melanoma
MDA-N = system: MDA-N
OVCAR-8 ovarian = system: OVCAR-8 ovarian
IGROV1 ovarian = system: IGROV1 ovarian
HCT-116 colon = system: HCT-116 colon
A549 NSCLC = system: A549 NSCLC
HOP-92 NSCLC = system: HOP-92 NSCLC
OVCAR-4 ovarian = system: OVCAR-4 ovarian
HOP-18 NSCLC = system: HOP-18 NSCLC

Row | Compound | TGI (HCT-15 colon) [µM] | TGI (ACHN renal) [µM] | TGI (MALME-3M melanoma) [µM] | TGI (MCF7 breast) [µM] | TGI (NCI-H522 lung) [µM] | TGI (CCRF-CEM leukemia) [µM] | TGI (LOX IMVI melanoma) [µM] | TGI (HS 578T breast) [µM] | TGI (OVCAR-5 ovarian) [µM] | TGI (M14 melanoma) [µM] | TGI (MDA-N) [µM] | TGI (OVCAR-8 ovarian) [µM] | TGI (IGROV1 ovarian) [µM] | TGI (HCT-116 colon) [µM] | TGI (A549 NSCLC) [µM] | TGI (HOP-92 NSCLC) [µM] | TGI (OVCAR-4 ovarian) [µM] | TGI (HOP-18 NSCLC) [µM]
1 | CCCCCCNC(=O)c1cc(NCc2cc(OC)ccc2OC)ccc1O | 57.3 | > 100 | 55.9 | 53.5 | 33.1 | 68.6 | 32.9 | 97.9 | > 100 | 38.4 | 41.8 | 86.7 | 55 | 49.6 | > 100 | 31.7 | 70.5 | 
2 | CS(=O)(=O)c1nc(N)nc2nc[nH]c12 | > 100 | > 100 |  |  | > 100 | > 100 | > 100 |  | > 100 | > 100 |  | > 100 | > 100 | > 100 | > 100 | > 100 | > 100 | > 100
3 | O=c1c2cccnc2[nH]c2ccc3scnc3c12 | > 10 | > 10 | > 10 | > 10 | > 10 | > 10 | > 10 | > 10 | > 10 | > 10 | > 10 | > 10 | > 10 | 9.79 | > 10 | > 10 | > 10 | 
4 | CC(N)Cc1cccc(C(F)(F)F)c1 (stereo unspecified) | > 100 | > 100 | > 100 |  | > 100 | > 100 | > 100 |  | > 100 | > 100 |  | > 100 | > 100 | > 100 | > 100 | > 100 | > 100 | > 100
5 | COC(=O)C1([C@@H]2C[C@@H](O)[C@]3(C)CC/C=C(\C)CCC[C@H](C)[C@H](O)[C@@H]2O3)CC1 | > 100 | > 100 | > 100 | > 100 | > 100 | > 100 | > 100 | > 100 | > 100 | > 100 | > 100 | > 100 | > 100 | > 100 | > 100 | > 100 | > 100 | 
6 | O=C(O)CN1CCNCCN(CC(=O)O)CC1 | > 100 | > 100 | > 100 | > 100 | 30.7 | > 100 | > 100 | > 100 | > 100 | > 100 | > 100 | 11.6 | > 100 | > 37.3 | > 80 | > 100 | > 100 | 
7 | NC(=S)SCCC(=O)O | > 100 | > 100 | > 100 | > 100 | > 100 | > 100 | > 100 | > 100 | > 100 | > 100 | > 100 | > 100 | > 100 | > 100 | > 100 | > 100 | > 100 | 
8 | Cc1cc(C)c2c(=O)cc(-c3ccc(Cl)cc3)[nH]c2n1 | > 100 | > 100 | > 59.3 | > 100 | > 100 | > 100 | > 100 | > 100 | > 100 | > 100 | 25 | > 100 | > 100 | > 63.4 | > 100 | > 100 | > 100 | 
9 | COc1cccc2c1C(=O)C(=O)c1c-2oc(=O)c2cc(C)cc(OC)c12 | 27.7 | > 75 | > 75 | 72.5 | 26.5 | > 75 | 26.5 | 55.1 | > 75 | > 75 | 38.7 | 30.6 | 32 | > 75 | > 75 | > 75 | 26.7 | 
10 | CC1(C)C(O)c2ccccc2OC1N1CCN(C2Oc3ccccc3C(O)C2(C)C)CC1 (stereo unspecified) | > 100 | > 100 | > 100 | > 100 | > 100 | > 100 | > 100 | > 100 | > 100 | > 100 | > 100 | > 100 | > 100 | > 100 | > 100 | > 100 | > 100 | 
11 | c1ccc(COCC23CCN(Cc4ccccc4)C(CC(OCc4ccccc4)C2)S3)cc1 (stereo unspecified) | > 100 | > 100 | > 100 | 59.9 | 72.7 | > 100 | > 100 | > 100 | > 100 | > 100 | > 100 | > 100 | > 100 | > 100 | > 100 | 87.4 | > 100 | 
12 | C[C@]12CCC3c4ccc(OC(=O)c5ccccc5)cc4CC[C@H]3C1CC[C@@H]2OC(=O)C12OC1CCC2=O (stereo partly specified) | 31.3 | 10.4 | 13.3 |  | 10.8 | 5.39 | 8.13 |  | 21.4 | 12 |  | 31.3 | 9.22 | 7.18 | 10.3 | 35.6 | 10.6 | 10.7
13 | O=C1c2ccccc2C(=O)c2c(OCC3CO3)ccc(OCC3CO3)c21 (stereo unspecified) | 4.5 | 6.63 | 20 | 2.59 | 13 | 0.393 | 0.515 | 36.8 | 30.9 | 4.78 | 23.8 | 5.94 | 10.8 | 11.5 | 22.2 | 10.7 | 30.9 | 
14 | NCC(=O)C(O)C(O)C(O)CO (stereo unspecified) | > 100 | > 100 | > 100 | > 100 | > 100 | > 100 | > 100 | > 100 | > 100 | > 100 | > 100 | > 100 | > 100 | > 100 | > 100 | > 100 | > 100 | 
